Reference: PubChem BioAssay (NCI)
Values joined by “and” are separate entries in the source; they are usually repeats but may differ in a detail not shown here. Equal values may be shown once.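 Step 1: Grow cells in 96-well plates. Step 2: Expose to compound for 48 hours at 5 concentrations. Step 3: Interpolate endpoints linearly; if unreached, use highest concentration. GI50 = concentration required for 50% inhibition of growth. Definition used: TGI = concentration required for complete inhibition of growth.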

Columns and labels:
BT-549 breast = experiment: NCI tumour cell line growth inhibition, 48 h
MDA-N = experiment: NCI tumour cell line growth inhibition, 48 h

Structure (SMILES) | TGI (BT-549 breast) | TGI (MDA-N) [µM] | GI50 (BT-549 breast)
CC(C)(C)c1ccc(O)c(CN(Cc2cc(C(C)(C)C)ccc2O)c2ccccc2)c1 | 36.4 µM | 30.4 | 
COC(=O)C12C3C4C1C1C2C3C41NC(=O)c1csc([C@@H](C[C@H](C(C)C)N(C)C(=O)[C@@H](NC(=O)[C@H]2CCCCN2C)C2CC2)OC(C)=O)n1 (stereo partly drawn) | 4.1 µM |  | < 0.00333 µM
Cc1ccc(NC(=O)c2sc3nc(C)c(C(O)c4ccccc4)cc3c2N)cc1 (stereo not drawn) | 33.7 µM |  | 1.15 µM
CC(C)(C)c1cc(NC(=O)Cc2ccc(-c3cnc4cc(-c5cnn(CCN6CCOCC6)c5)ccc4n3)cc2)no1 | 39.5 µM and > 100 µM and > 3 µM |  | 
Cc1ccc2c3c(c(=O)[nH]c2c1)C1(C(C#N)=C(N)O3)c2cc(Br)ccc2-c2ccc(Br)cc21 | 19.8 µM |  | 3.93 µM
Fc1ccc(-c2nn3ncccc3c2-c2ccnc(Nc3ccc4c(c3)OCCO4)n2)cc1 | 24.9 µM |  | 7.87 µM
CON(C)C(=O)N1N=C(c2cc(F)ccc2F)SC1(CCCN)c1ccccc1 (stereo not drawn) | 17.5 µM |  | 0.302 µM
CN1C(=O)c2ccccc2NC(=O)C12O[C@@H]2c1cccc(O)c1 (stereo partly drawn) |  | > 100 | 
O=C(/C=C\n1cnc(-c2cc(C(F)(F)F)cc(C(F)(F)F)c2)n1)NNc1cnccn1 | 2.82 µM |  | 0.0385 µM
CCC(=O)c1c(C(F)(F)F)n([O-])c2ccc(C)cc2[n+]1=O | 5.43 µM |  | 1.35 µM
Nc1nc(-c2cccc(Cl)c2)c(-c2ccc3ncccc3n2)s1 | > 25 µM |  | > 25 µM
O=C(O)[C@@H]1CCCCN1Cc1cc2cc3c(cc2c2cc(OCc4ccccc4)ccc12)OCO3 | 8.88 µM |  | 2.97 µM
COc1ccc2nc3cc(Cl)ccc3c(NCCN)c2c1 | 3.39 µM |  | 1.81 µM
COc1ccc(OC)c(C(=O)c2oc3ccc(Br)cc3c2N)c1 | 21.1 µM |  | 0.584 µM
COC(=O)c1c(C)[nH]c(/C=C2\N=C(c3ccc[nH]3)C=C2OC)c1C | 3.04 µM |  | 0.199 µM
COc1cc2c(c(OC)c1OC)-c1c(cc3c(c1OC)OCO3)C1OC2C(C)C1C (stereo not drawn) (tested in a mixture with another compound) | > 100 µM | > 100 | 
C=C1CC[C@@H]2[C@](C)(COC(C)=O)[C@H](OC(C)=O)CC[C@@]2(C)[C@@H]1CC(Nc1ccc(S(=O)(=O)Nc2ncccn2)cc1)C1=CCOC1=O (stereo partly drawn) | 3.39 µM |  | 1.64 µM

Structure (SMILES) | TGI (BT-549 breast) | TGI (MDA-N) [µM] | GI50 (BT-549 breast)
CCc1oc2ccccc2c1C(=O)c1cc(I)c(O)c(I)c1 | 13.9 µM |  | 2.79 µM
Cc1ccc(C(=O)Nc2ccc(CN3CCN(C)CC3)c(C(F)(F)F)c2)cc1C#Cc1cnc(N)c2ccccc12 | 8.71 µM |  | 1.93 µM
O=C(/C(=C/c1cccc([N+](=O)[O-])c1)c1ccccc1)c1ccccc1 | 13.1 µM |  | 3.38 µM
C/C=C(\C)CC/C=C/CO[Si](C)(C)C(C)(C)C |  | > 100 | 
O=C1/C(=C/c2ccc(O)cc2)CSc2ccc(Cl)cc21 | 38.3 µM |  | 15.7 µM
Cn1c2ccccc2c2c3[nH]c(=O)[nH]c(=O)c3c3c4ccccc4n(C)c3c21 | 18.7 µM |  | 2.83 µM
C=C(C)C1CCC2(C(=O)O)CCC3(C)C(CCC4C5(C)CCC(OC(=O)NCc6ccccc6)C(C)(C)C5CCC43C)C12 (stereo not drawn) | 33.3 µM |  | 4.05 µM
C/C(=N\Nc1ccc(Cl)cn1)c1ccccn1 | > 76 µM |  | 0.362 µM
CC[C@H](C)[C@H]1O[C@]2(C=C[C@@H]1C)C[C@@H]1C[C@@H](C/C=C(\C)[C@@H](O[C@H]3C[C@H](OC)[C@@H](O[C@H]4C[C@H](OC)[C@@H](NC)[C@H](C)O4)[C@H](C)O3)[C@@H](C)/C=C/C=C3\CO[C@@H]4[C@H](O)C(C)=C[C@@H](C(=O)O1)[C@]34O)O2 | 15.1 µM |  | 4.13 µM
CCN(CC)CCCC(C)Nc1cnc(C(=O)Nc2cccc3ccc(OC)nc23)cn1 (stereo not drawn) | 4.47 µM |  | 1.95 µM
NCCCn1c2c(c3ccc([N+](=O)[O-])cc3c1=O)C(=O)c1cc(Br)ccc1-2 | 0.893 µM |  | 0.0314 µM and 0.0491 µM
COc1ccc(C2SCC(=O)N2NC(=O)Nc2c(C)nc3ccccn23)cc1 (stereo not drawn) | 65 µM |  | 24.2 µM
COc1cc2c3c(n(C)c(=O)c2cc1OC)-c1cc2c(cc1/C3=C\CNCCCN)OCO2 | 5.22 µM |  | 1.91 µM
N#Cc1cccc(NC(=O)c2cc(-c3ccc(F)cc3F)ccc2O)c1 | 7.06 µM |  | 2.31 µM
COc1cc2c3c(n(CCNCCCNCCn4c5c(c6cc(OC)c(OC)cc6c4=O)C(=O)c4ccccc4-5)c(=O)c2cc1OC)-c1ccccc1C3=O | > 100 µM |  | 2.87 µM
C=C[C@H]1C[C@@H]2C[C@@H]3[C@H]4C/C=C\C(=O)NCCCC5NC(=O)C(=C(O)/C=C/[C@@H]4CC(=O)[C@H]3[C@@H]2[C@H]1C)C5=O (stereo partly drawn) | 0.322 µM |  | 0.158 µM
